The values below come from patent US8399681B2, “Substituted aminothiazolone indazoles as estrogen related receptor-alpha modulators” (Janssen Pharmaceutica NV, priority 2009, dated 2013).

Molecules are shown by their SMILES. A value given as a limit tells only on which side of the number the result lay.

The target of this test is T1, ERR1 (also known as ERR-α or ERR-1) (Homo sapiens, UniProt P11474).
T1 sequence (P11474 193-421 limits assumed): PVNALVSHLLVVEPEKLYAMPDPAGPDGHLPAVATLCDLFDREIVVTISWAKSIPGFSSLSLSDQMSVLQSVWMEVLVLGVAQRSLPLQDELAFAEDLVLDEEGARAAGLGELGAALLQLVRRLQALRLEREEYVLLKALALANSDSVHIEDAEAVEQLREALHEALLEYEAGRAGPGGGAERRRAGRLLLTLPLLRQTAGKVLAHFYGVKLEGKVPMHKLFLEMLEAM
In words: TR-FRET assay (disruption of co-activator peptide binding). Format: biochemical. To be noted: 6His-tagged ERR1 LBD, GST-hSRC2 co-activator polypeptide; average of 3 independent experiments. The protocol:
Time-Resolved Fluorescence Resonance Energy Transfer (TR-FRET) experiments were performed to examine the functional response of ERR1 (also known as ERR-α or ERR-1) ligands. The TR-FRET assay described herein relied on the conformation of ERR1 for binding to a co-activator peptide: when a test compound binds to ERR1 and alters its conformation, it can disrupt the binding of the co-activator peptide. The components of this homogeneous secondary assay included: the ^6His-tagged-ERR1LBD, a GST-labeled-hSRC2 co-activator polypeptide and a fluorescent donor/acceptor pair from CIS bio international htrf/bioassays (Bedford, Mass.) using both an α-GST Europium Cryptate (Eu) label and an α^6His-XL665 (allophycocyanin) fluorophore.
For TR-FRET measurements, the reaction was buffered in 25 mM Tris pH 8, 2.5 mM Hepes, 20 mM KCl, 1 mM DTT, and 0.05 mg/mL BSA (-lipids). The final concentrations of reagents were 6 nM of ERR1LBD, 6 nM GST-SRC-2 peptide, 30 nM Eu cryptate, and 7.5 nM XL665. Reactions were allowed to reach equilibrium at 25° C. for 4-18 hours before collecting data on the Analyst from LJL Biosystems (Molecular Devices Sunnyvale, Calif.). As a time-resolved method, the samples were excited at […] and emission was collected for 1 ms at both 615 and 665 nm with delays of 400 and 75 μs, respectively. Dose response curves were fitted using a hyperbolic equation and the data reported is the average of 3 independent experiments.
On the technique in general: TR-FRET usually uses a lanthanide donor and a delayed reading to cut background.

As usually defined, the EC50 is the concentration that produces a half-maximal response. A high value points to a less potent agent.

In turn, `CN[C@H]1CCN(C2=NC(=O)/C(=C/c3ccc4c(cnn4Cc4ccc(Cl)cc4C(F)(F)F)c3)S2)C1` (stereo in doubt) [Example 115, 5-[1-(4-Chloro-2-trifluoromethyl-benzyl)-1H-indazol-5-ylmethylene]-2-(3-methylamino-pyrrolidin-1-yl)-thiazol-4-one] displayed an EC50 of 8.4 nM. In turn, `O=C1N=C(N2CC[C@H](NC(=O)C(F)(F)F)C2)S/C1=C\c1ccc2c(cnn2Cc2ccc(Cl)cc2C(F)(F)F)c1` (stereo in doubt) [Example 116, N-(1-{5-[1-(4-Chloro-2-trifluoromethyl-benzyl)-1H-indazol-5-ylmethylene]-4-oxo-4,5-dihydro-thiazol-2-yl}-pyrrolidin-3-yl)-2,2,2-trifluoro-acetamide] yielded an EC50 of 11 nM. With `CC[C@H]1CN(C2=NC(=O)/C(=C/c3ccc4c(cnn4Cc4ccc(Cl)cc4C(F)(F)F)c3)S2)CCN1` (stereo in doubt) [Example 123, 5-[1-(4-Chloro-2-trifluoromethyl-benzyl)-1H-indazol-5-ylmethylene]-2-(3-ethyl-piperazin-1-yl)-thiazol-4-one] the figure was 5 nM; with `CN1CCN(C2=NC(=O)/C(=C/c3ccc4c(cnn4Cc4ccc(C(F)(F)F)cc4C(F)(F)F)c3)S2)CC1` [Compound 2, 5-[1-(2,4-Bis-trifluoromethyl-benzyl)-1H-indazol-5-ylmethylene]-2-(4-methyl-piperazin-1-yl)-thiazol-4-one], 7.2 nM. Take `O=C1N=C(N2CCOCC2)S/C1=C\c1ccc2c(cnn2Cc2ccc(C(F)(F)F)cc2C(F)(F)F)c1` [Compound 3, 5-[1-(2,4-Bis-trifluoromethyl-benzyl)-1H-indazol-5-ylmethylene]-2-morpholin-4-yl-thiazol-4-one]: the EC50 stood at 21 nM. For `O=C1N=C(N2CCN(CCO)CC2)S/C1=C\c1ccc2c(cnn2Cc2ccc(F)cc2C(F)(F)F)c1` [Compound 4, 5-[1-(4-Fluoro-2-trifluoromethyl-benzyl)-1H-indazol-5-ylmethylene]-2-[4-(2-hydroxy-ethyl)-piperazin-1-yl]-thiazol-4-one] the value was 92 nM; for `CC(=O)N1CCN(C2=NC(=O)/C(=C/c3ccc4c(cnn4Cc4ccc(F)cc4C(F)(F)F)c3)S2)CC1` [Compound 5, 2-(4-Acetyl-piperazin-1-yl)-5-[1-(4-fluoro-2-trifluoromethyl-benzyl)-1H-indazol-5-ylmethylene]-thiazol-4-one], 42 nM. For the compound `O=C1N=C(N2CCN(CCO)CC2)S/C1=C\c1ccc2c(cnn2Cc2ccc(C(F)(F)F)cc2C(F)(F)F)c1` [Compound 6, 5-[1-(2,4-Bis-trifluoromethyl-benzyl)-1H-indazol-5-ylmethylene]-2-[4-(2-hydroxy-ethyl)-piperazin-1-yl]-thiazol-4-one], the EC50 stood at 9 nM. Regarding `O=C1N=C(N2CCNCC2)S/C1=C\c1ccc2c(cnn2Cc2ccc(C(F)(F)F)cc2C(F)(F)F)c1` [Compound 7, 5-[1-(2,4-Bis-trifluoromethyl-benzyl)-1H-indazol-5-ylmethylene]-2-piperazin-1-yl-thiazol-4-one], the EC50 worked out at 38 nM.

With `CN1CCN(C2=NC(=O)/C(=C/c3ccc4c(cnn4Cc4ccc(Cl)cc4C(F)(F)F)c3)S2)CC1` [Compound 8, 5-[1-(4-Chloro-2-trifluoromethyl-benzyl)-1H-indazol-5-ylmethylene]-2-(4-methyl-piperazin-1-yl)-thiazol-4-one], the midpoint of the response, the EC50, lay at 7 nM. Take `N#Cc1ccc(Cn2ncc3cc(/C=C4\SC(N5CCN(CCO)CC5)=NC4=O)ccc32)c(C(F)(F)F)c1` [Compound 9, 4-(5-{2-[4-(2-Hydroxy-ethyl)-piperazin-1-yl]-4-oxo-4H-thiazol-5-ylidenemethyl}-indazol-1-ylmethyl)-3-trifluoromethyl-benzonitrile]: the midpoint of the response, the EC50, lay at 57.5 nM.

The compound `CN1CCN(C2=NC(=O)/C(=C/c3ccc4c(cnn4Cc4ccc(C#N)cc4C(F)(F)F)c3)S2)CC1` [Compound 10, 4-{5-[2-(4-Methyl-piperazin-1-yl)-4-oxo-4H-thiazol-5-ylidenemethyl]-indazol-1-ylmethyl}-3-trifluoromethyl-benzonitrile] showed an EC50 of 199 nM.

For the compound `O=C1N=C(N2C[C@H](O)C[C@H]2C(=O)O)S/C1=C\c1ccc2c(cnn2Cc2ccc(Cl)cc2C(F)(F)F)c1` [Compound 11, 1-{5-[1-(4-Chloro-2-trifluoromethyl-benzyl)-1H-indazol-5-ylmethylene]-4-oxo-4,5-dihydro-thiazol-2-yl}-4-(R)-hydroxy-pyrrolidine-2-(S)-carboxylic acid], the EC50 was determined as 57 nM. For `O=C1CN(C2=NC(=O)/C(=C/c3ccc4c(cnn4Cc4ccc(Cl)cc4C(F)(F)F)c3)S2)CCN1` [Compound 12, 4-{5-[1-(4-Chloro-2-trifluoromethyl-benzyl)-1H-indazol-5-ylmethylene]-4-oxo-4,5-dihydro-thiazol-2-yl}-piperazin-2-one] the value was 4.6 nM. With `O=C1N=C(N2CCN(CCO)CC2)S/C1=C\c1ccc2c(cnn2Cc2ccc(Cl)cc2C(F)(F)F)c1` [Compound 13, 5-[1-(4-Chloro-2-trifluoromethyl-benzyl)-1H-indazol-5-ylmethylene]-2-[4-(2-hydroxy-ethyl)piperazin-1-yl]-thiazol-4-one] the figure was 4.7 nM; with `O=C1N=C(N2CCN(CCO)CC2)S/C1=C\c1ccc2c(cnn2Cc2ccc(Cl)cc2Cl)c1` [Compound 14, 5-[1-(2,4-Dichloro-benzyl)-1H-indazol-5-ylmethylene]-2-[4-(2-hydroxy-ethyl)-piperazin-1-yl]thiazol-4-one], 68 nM; with `CN1CCN(C2=NC(=O)/C(=C/c3ccc4c(cnn4Cc4ccc(S(C)(=O)=O)cc4C(F)(F)F)c3)S2)CC1` [Compound 15, 5-[1-(4-Methanesulfonyl-2-trifluoromethyl-benzyl)-1H-indazol-5-ylmethylene]-2-(4-methyl-piperazin-1-yl)-thiazol-4-one], 530 nM. With `CS(=O)(=O)c1ccc(Cn2ncc3cc(/C=C4\SC(N5CCN(CCO)CC5)=NC4=O)ccc32)c(C(F)(F)F)c1` [Compound 16, 2-[4-(2-Hydroxy-ethyl)-piperazin-1-yl]-5-[1-(4-methanesulfonyl-2-trifluoromethyl-benzyl)-1H-indazol-5-ylmethylene]-thiazol-4-one] the figure was 450 nM. As for `CN1CCN(C2=NC(=O)/C(=C/c3ccc4c(cnn4Cc4ccc(S(C)(=O)=O)cc4Cl)c3)S2)CC1` [Compound 17, 5-[1-(2-Chloro-4-methanesulfonyl-benzyl)-1H-indazol-5-ylmethylene]-2-(4-methyl-piperazin-1-yl)-thiazol-4-one], the EC50 is above 4000 nM. The compound `CS(=O)(=O)c1ccc(Cn2ncc3cc(/C=C4\SC(N5CCNC(=O)C5)=NC4=O)ccc32)c(Cl)c1` [Compound 18, 4-{5-[1-(2-Chloro-4-methanesulfonyl-benzyl)-1H-indazol-5-ylmethylene]-4-oxo-4,5-dihydro-thiazol-2-yl}-piperazin-2-one] came in with an EC50 above 4000 nM. As for `CS(=O)(=O)c1ccc(Cn2ncc3cc(/C=C4\SC(N5CCN(CCO)CC5)=NC4=O)ccc32)c(Cl)c1` [Compound 19, 5-[1-(2-Chloro-4-methanesulfonyl-benzyl)-1H-indazol-5-ylmethylene]-2-[4-(2-hydroxy-ethyl)-piperazin-1-yl]-thiazol-4-one], the EC50 worked out at 350 nM.
